Measured values: patent US7615527B2, “Peptides which modulate blood coagulation and methods of use thereof” (Oregon Health & Science University, priority 2001, dated 2009)
Ends that are not written are not given here.

Key:
[1] = system: normal human reference plasma; experiment: Activated partial thromboplastin time (aPTT) assay in human plasma; format: biochemical; details: 1 mM peptide; reference blood plasma; without peptide 29.0±0.1 seconds
Experimental: Activated Partial Thromboplastin Time (aPTT) Assay. This anti-coagulation assay was chosen for testing the γ′ peptides due to its sensitivity to heparin-like compounds, its ease of use, and the ability to automate the procedure. An MLA 1600 instrument (Organon Teknika) was used to quantitate the effect of the γ′ peptides on the aPTT, using the manufacturer's protocol. Briefly, 0-1 mM γ′ peptides or 0-10 units/ml unfractionated heparin was added to 50 μl of normal reference plasma (Ortho) and manually loaded into the MLA 1600. The MLA 1600 added SynthASil aPTT reagent (Ortho) to initiate clotting, and clot formation was monitored spectrophotometrically for 106 seconds. […] Prothrombin Time/International Normalized Ratio Assay. This clotting assay is less sensitive to heparin than the aPTT, and may be used to determine if a γ′ peptide is capable of prolonging the prothrombin time (PT) to the same extent as the 3 aPTT. One-stage PT assays may be performed using an MLA 1600 instrument according to the manufacturer's protocol. Briefly, 0-1 mM γ′ peptide or scrambled peptide or 0-10 units/ml unfractionated heparin may be added to 50 μl of normal reference plasma (Ortho) and manually loaded into the MLA 1600. The MLA 1600 may be used to add recombinant thromboplastin (Recombiplastin, Ortho) to initiate clotting, and clot formation monitored spectrophotometrically for 106 seconds. If a clot is not generated within 106 seconds, the MLA will automatically extend the observation time to 212 seconds.
An aPTT assay was performed using human plasma to determine the effect of γ′ peptide on the clotting time in this system. […] The MLA 1600 added SynthASil aPTT reagent (Ortho) to initiate clotting and clot formation was monitored spectrophotometrically for 106 seconds. […]
An aPTT assay was performed using human plasma to determine the effect of γ′ deletion peptides on the clotting time in this system. […] The MLA 1600 added SynthASil aPTT reagent (Ortho) to initiate clotting and clot formation was monitored spectrophotometrically for 106 seconds. […]

[2] = system: platelet aggregation in platelet-rich plasma; experiment: Platelet aggregometry assay (PAP-4) in platelet-rich plasma; format: cell-based; details: for Platelet aggregation Slope, ADP / Platelet aggregation Extent, ADP: 2 μM ADP; for Platelet aggregation Slope, ADP: 0 mM: 47; for Platelet aggregation Extent, ADP / Platelet aggregation Extent, Epinephrine: 0 mM: 83%; for Platelet aggregation Slope, Epinephrine / Platelet aggregation Extent, Epinephrine: 10 μg/ml epinephrine; for Platelet aggregation Slope, Epinephrine: 0 mM: 24; for Platelet aggregation Slope, Arachidonic Acid / Platelet aggregation Extent, Arachidonic Acid: 0.5 mg/ml arachidonic acid; for Platelet aggregation Slope, Arachidonic Acid: 0 mM: 32; for Platelet aggregation Extent, Arachidonic Acid: 0 mM: 82%; for Platelet aggregation Extent, Thrombin / Platelet aggregation Slope, Thrombin: 0.2 units/ml thrombin; for Platelet aggregation Extent, Thrombin: 0 mM: 97%; for Platelet aggregation Slope, Thrombin: 0 mM: 113
Experimental: Reptilase Time Assays. The reptilase time may be used as a control assay to examine the effects of a γ′ peptide. This assay is insensitive to thrombin inhibitors, since reptilase is used to clot fibrinogen rather than thrombin. An LA STA instrument (Diagnostica Stago) may be used to quantitate the effect of the γ′ peptide on the RVV, using the manufacturer's protocol. Briefly, 0-1 mM γ′ peptide or scrambled peptide or 0-10 units/ml unfractionated heparin may be added to 1 ml of normal reference plasma (DVVtroll) and loaded into the LA STA. The LA STA may be used to add Reptilase ST reagent (American Diagnostica) to initiate clotting, and clot formation monitored spectrophotometrically for 65 seconds. […] Platelet Aggregometzy Assays. This assay may be used to test the effects of a γ′ peptide on platelet aggregation in platelet-rich plasma. The activity of a γ′ peptide may be assayed in the presence or absence of epinephrine, ADP, collagen, ristocetin, arachidonic acid, and thrombin. A PAP-4 platelet aggregometer (Bio/Data) was used to quantitate the effect of the γ′ peptide on platelet aggregation, using the manufacturer's protocol. […] Blood was centrifuged for 10 minutes at 1,000×g, to isolate the supernatant of platelet-rich plasma. All experiments were performed within 2 hours of the blood draw. 0-1 mM γ′ peptide or scrambled peptide or 0-10 units/ml unfractionated heparin was added to 450 μl of platelet-rich plasma and loaded into siliconized cuvettes. 50 μl of agonist was added and the absorbance monitored for 6 minutes. The agonists used were 10 μg/ml epinephrine (American Reagent Laboratories), 2 μM ADP (Sigma), 0.5 mg/ml arachidonic acid (Bio/Data), or 0.2 units/ml thrombin. The presence or absence of a bi-phasic response may be determined, which is of particular significance in the presence of epinephrine, ADP, and ristocetin. The length of the lag phase may be determined, which is especially relevant in the presence of collagen. PFA-100 Assays. The effect of the γ′ peptide on platelet function may also be assessed using a Platelet Function Analyzer (PFA-100™, Dade Behring). The PFA-100 instrument measures the closure time of a capillary tube containing whole blood. This assay may be used to advantage to examine the effect of γ′ peptide on platelet function in whole blood in the presence of either of the platelet agonists epinephrine or ADP. Briefly, 0-1 mM γ′ peptide or scrambled peptide or 0-10 units/ml unfractionated heparin may be added to 800 μl of normal reference whole blood from an established control group and loaded into the PFA-100 to measure the closure time. Platelet function may be tested using both a collagen/epinephrine cartridge and a collagen/ADP cartridge
Platelet aggregation assays were performed as described hereinabove. A PAP-4 platelet aggregometer (Bio/Data) was used to quantitate the effect of the γ′ peptide on platelet aggregation, using the manufacturer's protocol.
Blood was centrifuged for 10 minutes at 1,000×g, and the supernatant of platelet-rich plasma was separated. 0-1 mM γ′ peptide was added to 450 μl of platelet-rich plasma and loaded into siliconized cuvettes. 50 μl of agonist was added, and the absorbance was monitored for 6 minutes. The agonists used were 2 μM ADP (Sigma), 0.5 mg/ml arachidonic acid (Bio/Data), 10 μg/ml epinephrine (American Reagent Laboratories), or 0.2 units/ml thrombin.

Substance: PEHPAETEY(*)DSLY(*)PEDDL (PEHPAETEYDSLYPEDDL; not fully specified (residues 9, 13); printed as PEHPAETEY(*)DSLY(*)PEDDL) [γ′ 410-427]
- Blood clotting time, activated partial thromboplastin assay [1]: 55.1 ± 0.0 s
- Platelet aggregation Slope, ADP ([2]; 0.125 mM peptide): 43
- Platelet aggregation Extent, ADP ([2]; 0.125 mM peptide): 87%
- Platelet aggregation Slope, ADP ([2]; 0.25 mM peptide): 40
- Platelet aggregation Extent, ADP ([2]; 0.25 mM peptide): 86%
- Platelet aggregation Slope, ADP ([2]; 0.5 mM peptide): 39
- Platelet aggregation Extent, ADP ([2]; 0.5 mM peptide): 82%
- Platelet aggregation Slope, ADP ([2]; 1.0 mM peptide): 32
- Platelet aggregation Extent, ADP ([2]; 1.0 mM peptide): 58%
- Platelet aggregation Slope, Epinephrine ([2]; 0.125 mM peptide): 22
- Platelet aggregation Extent, Epinephrine ([2]; 0.125 mM peptide): 84%
- Platelet aggregation Slope, Epinephrine ([2]; 0.25 mM peptide): 20
- Platelet aggregation Extent, Epinephrine ([2]; 0.25 mM peptide): 82%
- Platelet aggregation Slope, Epinephrine ([2]; 0.5 mM peptide): 16
- Platelet aggregation Extent, Epinephrine ([2]; 0.5 mM peptide): 78%
- Platelet aggregation Slope, Epinephrine ([2]; 1.0 mM peptide): 9
- Platelet aggregation Extent, Epinephrine ([2]; 1.0 mM peptide): 43%
- Platelet aggregation Slope, Arachidonic Acid ([2]; 0.125 mM peptide): 33
- Platelet aggregation Extent, Arachidonic Acid ([2]; 0.125 mM peptide): 81%
- Platelet aggregation Slope, Arachidonic Acid ([2]; 0.25 mM peptide): 35
- Platelet aggregation Extent, Arachidonic Acid ([2]; 0.25 mM peptide): 82%
- Platelet aggregation Slope, Arachidonic Acid ([2]; 0.5 mM peptide): 31
- Platelet aggregation Extent, Arachidonic Acid ([2]; 0.5 mM peptide): 83%
- Platelet aggregation Slope, Arachidonic Acid ([2]; 1.0 mM peptide): 34
- Platelet aggregation Extent, Arachidonic Acid ([2]; 1.0 mM peptide): 85%
- Platelet aggregation Extent, Thrombin ([2]; 0.125 mM peptide): 68%
- Platelet aggregation Slope, Thrombin ([2]; 0.125 mM peptide): 70
- Platelet aggregation Extent, Thrombin ([2]; 0.25 mM peptide): 64%
- Platelet aggregation Slope, Thrombin ([2]; 0.25 mM peptide): 39
- Platelet aggregation Extent, Thrombin ([2]; 0.5 mM peptide): 93%
- Platelet aggregation Slope, Thrombin ([2]; 0.5 mM peptide): 21
- Platelet aggregation Extent, Thrombin ([2]; 1.0 mM peptide): 33%
- Platelet aggregation Slope, Thrombin ([2]; 1.0 mM peptide): 10
